This passage reports IC50 results from patent US20240269298A1, “PHOSPHONYL DERIVATIVE, AND COMPOSITION AND PHARMACEUTICAL APPLICATION THEREOF” (XIZANG HAISCO PHARMACEUTICAL CO., LTD., priority 2021, published 2024).

This assay has as its system NCI-H1975 (EGFR-L858R-T790M) cells. Nature of the assay: Inhibitory activity on proliferation of NCI-H1975 (EGFR-L858R-T790M) cells (CTG, 72 h). The settings on record: Homo sapiens. It is filed as cell-based. In short, it runs like this:
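IC50 values come from S-shaped dose-survival fits of CTG signal expressed as % of vehicle. Compound exposure lasted 72 h at 37 °C with 0.1% DMSO; seeding was 3000 A431 cells/well in DMEM+10% FBS and 1000 NCI-H1975 cells/well in RPMI1640+10% FBS.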

Setting [1] is: read-out: IC50 (value in brackets).

Read-outs that look alike come from different tables or passages of the source.

For `COc1cc(N2CCC(CN3CCN(c4ccc(NC5CCC(=O)NC5=O)cc4F)CC3)CC2)c(-c2cnn(C)c2)cc1Nc1ncc(Cl)c(Nc2ccccc2P(C)(C)=O)n1` (stereo not drawn) [Compound 157, 3-((4-(4-((1-(4-((5-chloro-4-((2-(dimethylphosphoryl)phenyl)amino)pyrimidin-2-yl)amino)-5-methoxy-2-(1-methyl-1H-pyrazol-4-yl)phenyl)piperidin-4-yl)methyl)piperazin-1-yl)-3-fluorophenyl)amino)piperidine-2,6-dione], the IC50 reads like this: (read-out: IC50 (class symbol)) less than 100 nM; under setting [1], 29 nM.
The corresponding values for `COc1cc(N2CCC3(CC2)CN(CC2CCN(c4cc5c(cc4F)C(=O)N(C4CCC(=O)NC4=O)C5=O)CC2)C3)c(-c2cnn(C)c2)cc1Nc1ncc(Cl)c(Nc2ccc(-c3ccccc3)cc2P(C)(C)=O)n1` (stereo not drawn) [Compound 94, 5-(4-((7-(4-((5-chloro-4-((3-(dimethylphosphoryl)-[1,1′-biphenyl]-4-yl)amino)pyrimidin-2-yl)amino)-5-methoxy-2-(1-methyl-1H-pyrazol-4-yl)phenyl)-2,7-diazaspiro[3.5]nonan-2-yl)methyl)piperidin-1-yl)-2-(2,6-dioxopiperidin-3-yl)-6-fluoroisoindoline-1,3-dione] are less than 100 nM and 77 nM.
`COc1cc(N2CCC(CN3CCN(c4ccc(C5CCC(=O)NC5=O)cc4)CC3)CC2)c(-c2cnn(C)c2)cc1Nc1ncc(Cl)c(Nc2ccc(C3CC3)cc2P(C)(C)=O)n1` (stereo not drawn) [Compound 152, 3-(4-(4-((1-(4-((5-chloro-4-((4-cyclopropyl-2-(dimethylphosphoryl)phenyl)amino)pyrimidin-2-yl)amino)-5-methoxy-2-(1-methyl-1H-pyrazol-4-yl)phenyl)piperidin-4-yl)methyl)piperazin-1-yl)phenyl)piperidine-2,6-dione]: the IC50 reads like this: (read-out: IC50 (class symbol)) less than 100 nM; under setting [1], 68 nM.
For `COc1cc(N2CCN(C3CCN(CC4CCN(c5ccc6c(c5)C(=O)N(C5CCC(=O)NC5=O)C6=O)CC4)CC3)CC2)c(-c2cnn(C)c2)cc1Nc1ncc(Br)c(Nc2ccc3nccnc3c2P(C)(C)=O)n1` (stereo not drawn) [Compound 31, 5-(4-((4-(4-(4-((5-bromo-4-((5-(dimethylphosphoryl)quinoxalin-6-yl)amino)pyrimidin-2-yl)amino)-5-methoxy-2-(1-methyl-1H-pyrazol-4-yl)phenyl)piperazin-1-yl)piperidin-1-yl)methyl)piperidin-1-yl)-2-(2,6-dioxopiperidin-3-yl)isoindoline-1,3-dione], the IC50 was less than 100 nM (read-out: IC50 (class symbol)) and 15 nM under setting [1].
In the same order, the values of `COc1cc(N2CCC3(CCN(CC4CCN(c5cc6c(cc5F)C(=O)N(C5CCC(=O)NC5=O)C6=O)CC4)CC3)CC2)c(-c2cnn(C)c2)cc1Nc1ncc(Br)c(Nc2ccc3nccnc3c2P(C)(C)=O)n1` (stereo not drawn) [Compound 21, 5-(4-((9-(4-((5-bromo-4-((5-(dimethylphosphoryl)quinoxalin-6-yl)amino)pyrimidin-2-yl)amino)-5-methoxy-2-(1-methyl-1H-pyrazol-4-yl)phenyl)-3,9-diazaspiro[5.5]undecan-3-yl)methyl)piperidin-1-yl)-2-(2,6-dioxopiperidin-3-yl)-6-fluoroisoindoline-1,3-dione] are less than 100 nM and 39 nM.
For the molecule `COc1cc(N2CCC(N3CCC(CN4CCN(c5ccc6c(c5)C(=O)N(C5CCC(=O)NC5=O)C6=O)CC4)CC3)CC2)c(-c2cnn(C)c2)cc1Nc1ncc(Br)c(Nc2ccc3nccnc3c2P(C)(C)=O)n1` (stereo not drawn) [Trifluoroacetate of compound 19, 5-(4-((1′-(4-((5-bromo-4-((5-(dimethylphosphoryl)quinoxalin-6-yl)amino)pyrimidin-2-yl)amino)-5-methoxy-2-(1-methyl-1H-pyrazol-4-yl)phenyl)-[1,4′-bipiperidin]-4-yl)methyl)piperazin-1-yl)-2-(2,6-dioxopiperidin-3-yl)isoindoline-1,3-dione], the IC50 (read-out: IC50 (class symbol)) is less than 100 nM and the half-inhibitory concentration (IC50) under setting [1] was determined as 42 nM.

By IC50 is commonly meant the concentration that gives 50% inhibition.
